According to PubChem BioAssay AID192 (DTP/NCI, 2004):
Values joined by “and” are separate entries in the source; they are usually repeats but may differ in a detail not shown here. Identical values can stand only once. Toxic doses and inconclusive results are not listed. The calls were made as follows: active = survival T/C of 150% or more; inactive = T/C below 125% in these data.

Tested on: BDF1 mice, B16 melanoma ip, median survival T/C
Experiment: NCI In Vivo Anticancer Drug Screen. Data for tumor model B16 Melanoma (intraperitoneal) in B6D2F1 (BDF1) mice
Conditions: endpoint: median survival time, higher = longer survival
Procedure, shortened: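 Antitumor activity is assessed in mice bearing a transplanted tumor, with survival or tumor size compared against vehicle-dosed controls and expressed as T/C.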

[1] = dose: 50.0 mg/kg/injection, schedule: Q01DX009 (ip), vehicle: other
[2] = dose: 100.0 mg/kg/injection, schedule: Q01DX009 (ip), vehicle: other
[3] = dose: 25.0 mg/kg/injection, schedule: Q01DX009 (ip), vehicle: Klucel (hydroxypropylcellulose) (HPC)
[4] = dose: 50.0 mg/kg/injection, schedule: Q01DX009 (ip), vehicle: Klucel (hydroxypropylcellulose) (HPC)
[5] = dose: 100.0 mg/kg/injection, schedule: Q01DX009 (ip), vehicle: Klucel (hydroxypropylcellulose) (HPC)
[6] = dose: 1.56 mg/kg/injection, schedule: Q01DX009 (ip), vehicle: Klucel (hydroxypropylcellulose) (HPC)
[7] = dose: 3.12 mg/kg/injection, schedule: Q01DX009 (ip), vehicle: Klucel (hydroxypropylcellulose) (HPC)
[8] = dose: 6.25 mg/kg/injection, schedule: Q01DX009 (ip), vehicle: Klucel (hydroxypropylcellulose) (HPC)
[9] = dose: 12.5 mg/kg/injection, schedule: Q01DX009 (ip), vehicle: Klucel (hydroxypropylcellulose) (HPC)
[10] = dose: 3.12 mg/kg/injection, schedule: Q01DX009 (ip), vehicle: saline
[11] = dose: 6.25 mg/kg/injection, schedule: Q01DX009 (ip), vehicle: saline
[12] = dose: 12.5 mg/kg/injection, schedule: Q01DX009 (ip), vehicle: saline
[13] = dose: 25.0 mg/kg/injection, schedule: Q01DX009 (ip), vehicle: saline
[14] = dose: 50.0 mg/kg/injection, schedule: Q01DX009 (ip), vehicle: saline
[15] = dose: 200.0 mg/kg/injection, schedule: Q01DX009 (ip), vehicle: Klucel (hydroxypropylcellulose) (HPC)

Measured: T/C

CCOC(=O)CNC(=O)CCCCSc1ncnc2nc[nH]c12
inactive: dose: 20.0 mg/kg/injection, schedule: Q01DX009 (ip), vehicle: Klucel (hydroxypropylcellulose) (HPC) 88 % of control | dose: 40.0 mg/kg/injection, schedule: Q01DX009 (ip), vehicle: Klucel (hydroxypropylcellulose) (HPC) 91 % of control | dose: 80.0 mg/kg/injection, schedule: Q01DX009 (ip), vehicle: Klucel (hydroxypropylcellulose) (HPC) 89 % of control | dose: 160.0 mg/kg/injection, schedule: Q01DX009 (ip), vehicle: Klucel (hydroxypropylcellulose) (HPC) 89 % of control | dose: 320.0 mg/kg/injection, schedule: Q01DX009 (ip), vehicle: Klucel (hydroxypropylcellulose) (HPC) 87 % of control

O=C1C=CC(=O)C2=C1CCCC2
inactive: dose: 2.9 mg/kg/injection, schedule: Q01DX009 (ip), vehicle: saline with Tween-80 87 % of control | dose: 4.5 mg/kg/injection, schedule: Q01DX009 (ip), vehicle: saline with Tween-80 87 % of control

CC(C)(C)OC(=O)NC(N)=NCCCC(NC(=O)OC(C)(C)C)C(=O)O (stereo not drawn)
inactive: dose: 50.0 mg/kg/injection, schedule: Q01DX009 (ip), vehicle: saline with Tween-80 101 % of control | dose: 100.0 mg/kg/injection, schedule: Q01DX009 (ip), vehicle: saline with Tween-80 88 % of control | dose: 200.0 mg/kg/injection, schedule: Q01DX009 (ip), vehicle: saline with Tween-80 87 % of control

COc1cc(O)c2c(c1)C(=O)c1cc3c(c(O)c1C2=O)CC(OC)C(C)(O)C3=O (stereo not drawn)
inactive: dose: 25.0 mg/kg/injection, schedule: Q01DX009 (ip), vehicle: other 104 % of control | [1] 91 % of control | [2] 91 % of control

N#CCCC1C2CCC(C2)C1C#N (stereo not drawn)
inactive: dose: 5.0 mg/kg/injection, schedule: Q01DX009 (ip), vehicle: Klucel (hydroxypropylcellulose) (HPC) 112 % of control | dose: 10.0 mg/kg/injection, schedule: Q01DX009 (ip), vehicle: Klucel (hydroxypropylcellulose) (HPC) 95 % of control

O=C(O)C1CC2C3CC(C(=O)O)C(C3)C2C1 (stereo not drawn)
inactive: dose: 100.0 mg/kg/injection, schedule: Q04DX003 (ip), vehicle: saline 108 % of control | dose: 200.0 mg/kg/injection, schedule: Q04DX003 (ip), vehicle: saline 104 % of control | dose: 400.0 mg/kg/injection, schedule: Q04DX003 (ip), vehicle: saline 105 % of control

C1CC[N-]CC1.CC(=N\O)/C(C)=N/O.CC(=N\O)/C(C)=N/O.[CH3-].[Co+2]
inactive: [3] 105 % of control | [4] 91 % of control | [5] 88 % of control

O=[N+]([O-])c1ccc2c(N=Nc3ccc4ccccc4c3O)c(O)cc(S(=O)(=O)O)c2c1
inactive: dose: 37.5 mg/kg/injection, schedule: Q01DX009 (ip), vehicle: Klucel (hydroxypropylcellulose) (HPC) 94 % of control | dose: 75.0 mg/kg/injection, schedule: Q01DX009 (ip), vehicle: Klucel (hydroxypropylcellulose) (HPC) 98 % of control

CCC(CC)(COC(N)=O)COC(N)=O
inactive: dose: 0.78 mg/kg/injection, schedule: Q01DX009 (ip), vehicle: Klucel (hydroxypropylcellulose) (HPC) 89 % of control | [6] 93 % of control | [7] 95 % of control | [8] 97 % of control | [9] 86 % of control

C=CC(=O)[O][Pb]([CH3])([CH3])[CH3]
inactive: dose: 0.75 mg/kg/injection, schedule: Q01DX009 (ip), vehicle: saline with Tween-80 94 % of control | dose: 1.5 mg/kg/injection, schedule: Q01DX009 (ip), vehicle: saline with Tween-80 95 % of control

O=C(C=C(C(F)(F)Cl)C(F)(F)Cl)c1cccs1
inactive: dose: 0.31 mg/kg/injection, schedule: Q01DX009 (ip), vehicle: saline 97 % of control | dose: 0.62 mg/kg/injection, schedule: Q01DX009 (ip), vehicle: saline 92 % of control | dose: 2.5 mg/kg/injection, schedule: Q04DX003 (ip), vehicle: saline 97 % of control | dose: 5.0 mg/kg/injection, schedule: Q04DX003 (ip), vehicle: saline 105 % of control | dose: 10.0 mg/kg/injection, schedule: Q04DX003 (ip), vehicle: saline 90 % of control

CC(C(=O)N1c2ccccc2Sc2ccccc21)[N+]1(C)CCCC1 (stereo not drawn)
inactive: [10] 93 % of control | [11] 93 % of control | [12] 95 % of control | [13] 91 % of control | [14] 100 % of control

O=c1[nH]cc(F)c(=O)[nH]1.[Tl]
inactive: dose: 1.25 mg/kg/injection, schedule: Q01DX009 (ip), vehicle: water 95 % of control | dose: 2.5 mg/kg/injection, schedule: Q01DX009 (ip), vehicle: water 100 % of control | dose: 5.0 mg/kg/injection, schedule: Q01DX009 (ip), vehicle: water 102 % of control | dose: 10.0 mg/kg/injection, schedule: Q01DX009 (ip), vehicle: water 113 % of control

COc1cc2ccc(Cc3nccc4cc(OC)c(OC)cc34)cc2cc1OC
inactive: [5] 93 % of control | [15] 93 % of control

O=C(NC(=O)C(Cl)Cl)OC1c2cc(Cl)ccc2-c2c(Cl)cc(Cl)cc21 (stereo not drawn)
inactive: dose: 3.0 mg/kg/injection, schedule: Q01DX009 (ip), vehicle: saline with Tween-80 93 % of control | dose: 6.0 mg/kg/injection, schedule: Q01DX009 (ip), vehicle: saline with Tween-80 97 % of control | dose: 12.0 mg/kg/injection, schedule: Q01DX009 (ip), vehicle: saline with Tween-80 86 % of control

Cc1ccccc1N=Cc1ccc2c(c1)OCO2
inactive: [4] 102 % of control | [5] 95 % of control | [15] 100 % of control

CNC(=O)Oc1c(C)occc1=O
inactive: [11] 100 % of control | [12] 90 % of control | [13] 100 % of control | [14] 97 % of control

O=S(CCCl)CCCl
inactive: [6] 95 % of control and 107 % of control | [7] 94 % of control and 103 % of control | [8] 111 % of control | [9] 99 % of control | [3] 89 % of control | [4] 91 % of control

C1CC[N-]CC1.CC(=N\O)/C(C)=N/O.CC(=N\O)/C(C)=N/O.[Co+2].[c-]1ccccc1
inactive: [5] 90 % of control | [15] 93 % of control | dose: 400.0 mg/kg/injection, schedule: Q01DX009 (ip), vehicle: Klucel (hydroxypropylcellulose) (HPC) 90 % of control

COc1cc(O)c2c(c1)C(=O)c1cc3c(c(O)c1C2=O)C(OC1OC(C)C(O)C(O)C1OC)C(OC)C(C)(O)C3=O (stereo not drawn)
inactive: [4] 117 % of control | [5] 96 % of control

COC1C(O)C(C)OC(OC2CC(O)C3(C)C(CCC4C3CCC3(C)C(C5=CC(=O)OC5)CCC43O)C2)C1O (stereo not drawn) (tested in a mixture with another compound)
inactive: dose: 2.0 mg/kg/injection, schedule: Q01DX009 (ip), vehicle: saline 99 % of control | dose: 4.0 mg/kg/injection, schedule: Q01DX009 (ip), vehicle: saline 97 % of control | dose: 8.0 mg/kg/injection, schedule: Q01DX009 (ip), vehicle: saline 97 % of control | dose: 16.0 mg/kg/injection, schedule: Q01DX009 (ip), vehicle: saline 94 % of control | dose: 32.0 mg/kg/injection, schedule: Q01DX009 (ip), vehicle: saline 94 % of control | dose: 64.0 mg/kg/injection, schedule: Q01DX009 (ip), vehicle: saline 88 % of control

CCOC(=O)C(C)Oc1ccc(Cl)cc1 (stereo not drawn)
inactive: [1] 111 % of control | [2] 104 % of control | dose: 200.0 mg/kg/injection, schedule: Q01DX009 (ip), vehicle: other 106 % of control | dose: 400.0 mg/kg/injection, schedule: Q01DX009 (ip), vehicle: other 102 % of control

O=C1/C(=C/c2ccc([N+](=O)[O-])cc2)CCc2ccccc21
inactive: dose: 12.5 mg/kg/injection, schedule: Q01DX009 (ip), vehicle: water 94 % of control | dose: 25.0 mg/kg/injection, schedule: Q01DX009 (ip), vehicle: water 97 % of control | dose: 50.0 mg/kg/injection, schedule: Q01DX009 (ip), vehicle: water 92 % of control | dose: 100.0 mg/kg/injection, schedule: Q01DX009 (ip), vehicle: water 92 % of control

O=c1cc(-c2ccccc2)nc(Nc2nc3ccc([N+](=O)[O-])cc3[nH]2)[nH]1
inactive: [3] 102 % of control | [4] 90 % of control | [5] 98 % of control and 103 % of control

CCC1(CC)COC(=O)NC1=O
inactive: dose: 1.56 mg/kg/injection, schedule: Q01DX009 (ip), vehicle: saline 105 % of control | [10] 97 % of control | [11] 105 % of control | [12] 107 % of control
